Ten molecules from patent EP4729529A1, “PREPARATION OF PEPTIDE INHIBITOR OF INTERLEUKIN-23 RECEPTOR AND USE THEREOF” (Xizang Haisco Pharmaceutical Co., Ltd., priority 2023, dated 2024) can be followed below.

The target in this experiment is T1, IL-23α/IL-12β and IL-23R (Homo sapiens, UniProt Q5VWK5).
T1 construct: purchased ACRO ILR-H82F3 (IL-23R); ILB-H52W5 (IL-23α/IL-12β)
T1 sequence (Q5VWK5 24-353 limits assumed): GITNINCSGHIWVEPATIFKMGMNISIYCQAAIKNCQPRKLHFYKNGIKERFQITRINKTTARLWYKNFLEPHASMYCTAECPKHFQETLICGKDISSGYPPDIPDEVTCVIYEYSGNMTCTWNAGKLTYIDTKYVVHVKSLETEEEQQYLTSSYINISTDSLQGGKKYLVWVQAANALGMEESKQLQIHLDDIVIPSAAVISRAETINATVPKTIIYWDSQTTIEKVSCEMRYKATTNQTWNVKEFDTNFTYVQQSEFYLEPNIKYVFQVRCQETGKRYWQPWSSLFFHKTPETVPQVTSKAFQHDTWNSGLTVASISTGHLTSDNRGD
Briefly: IL-23α/IL-12β and IL-23R binding assay (TR-FRET/HTRF). The settings on record: inhibition of the binding of IL-23α/IL-12β to IL-23R, TR-FRET; both proteins 0.3 nM. As to the method:
1. IL-23α/IL-12β and IL-23R binding assay
Compounds were tested for their inhibition on the binding of IL-23α/IL-12β to IL-23R by the TR-FRET method. Solutions of proteins IL-23α/IL-12β (ACRO, Cat# ILB-H52W5) and IL-23R (ACRO, Cat# ILR-H82F3) were prepared in reaction buffer PPI (PerkinElmer, Cat# 61DB10RDF). The final concentrations of IL-23α/IL-12β and IL-23R in the reaction mixture were both 0.3 nM. Positive reference Guselkumab was 3-fold diluted from an initial concentration of 30 nM, with 10 doses. 0.1 µL of the positive reference diluted in the reaction buffer was delivered to a 384-well plate (Grenier, Cat# 784075) by the acoustic liquid delivery technique (Echo 655), and the plate was centrifuged at 1000 rpm for 1 minute. 2.5 µL of IL-23α/IL-12β solution was transferred into the 384-well reaction plate, and the plate was centrifuged at 1000 rpm for 1 minute, and incubated at 25°C for 60 minutes. 2.5 µL of IL-23R solution was transferred into the 384-well reaction plate, and the plate was centrifuged at 1000 rpm for 1 minute. 5 µL of Streptavidin-Tb cryptate and Anti 6HIS-d2 detection mixture was transferred into the 384-well reaction plate, and the plate was centrifuged at 1000 rpm for 1 minute, and incubated at 25°C for 60 minutes. Finally, the HTRF signal (Ratio 665/620 nm) was read with a BMG high-throughput drug screening multifunctional microplate reader. IC50 values were obtained by nonlinear regression curve fitting using GraphPad Prism software.
A general note: TR-FRET usually uses a lanthanide donor and a delayed reading to cut background.

Starred links: 1 amine or outer side, 2 acyl side, 3 side chain; linkers in the order of their positions; H or OH if unused. Positions of bridges follow the written chain, without caps; N, C: chain ends. Non-standard residues stand in square brackets, D forms with d. Residues, ends and D or L forms follow the SMILES beside them. Groups on a side chain read outwards from the residue. *: point of attachment. Phe(4-OC2H4NH2,2,3-(CH2)3) = NCCOc1ccc(C[C@H](N)C(=O)O)c2c1CCC2; Trp(7-cPr) = N[C@@H](Cc1c[nH]c2c(C3CC3)cccc12)C(=O)O; NH(CH2CH2O)4CH2CO = O=C(COCCOCCOCCOCCN[*:1])[*:2]; Trp(7-Me) = Cc1cccc2c(C[C@H](N)C(=O)O)c[nH]c12; C18 diacid = O=C(O)CCCCCCCCCCCCCCCCC(=O)*; X6 = COCCOCCOCCOCCOCCOCCOCCOCCOCCOCC(=O)*; γGlu = O=C(O)[C@H](CCC(=O)[*:2])N[*:1]; 2Nal = N[C@@H](Cc1ccc2ccccc2c1)C(=O)O; TBMB = c1c(C[*:1])cc(C[*:3])cc1C[*:2]; X1 = O=C(C(N[*:1])C1(S[*:3])CC1)[*:2]; Thp(SO2) = NC1(C(=O)O)CCS(=O)(=O)CC1; AEF = NCCOc1ccc(C[C@H](N)C(=O)O)cc1; Adipoyl = O=C(CCCCC(=O)[*:2])[*:1]; 3Pal = N[C@@H](Cc1cccnc1)C(=O)O; Pen = CC(C)(S)[C@H](N)C(=O)O; Thp = NC1(C(=O)O)CCOCC1; Dap = NC[C@H](N)C(=O)O; AEEA = NCCOCCOCC(=O)O; CO = O=C([*:1])[*:2]; Sar = CNCC(=O)O

As to `C[C@@H](O)[C@@H]1NC(=O)[C@H](Cc2c[nH]cn2)NC(=O)[C@@H](NC(=O)COCCOCCNC(=O)COCCOCCNC(=O)CC[C@H](NC(=O)CCCCC(=O)O)C(=O)O)C(C)(C)SSC(C)(C)[C@@H](C(=O)N[C@@H](Cc2ccc(OCCN)c3c2CCC3)C(=O)N[C@@H](Cc2ccc3ccccc3c2)C(=O)NC2(C(=O)N[C@@H](CCC(=O)O)C(=O)N[C@@H](CC(N)=O)C(=O)N[C@@H](Cc3cccnc3)C(=O)N(C)CC(N)=O)CCS(=O)(=O)CC2)NC(=O)[C@H](CCC(N)=O)NC(=O)[C@H](Cc2c[nH]c3c(C4CC4)cccc23)NC1=O` [Compound 48] ({Adipoyl-γGlu-AEEA-AEEA}-[Pen]HT[Trp(7-cPr)]Q[Pen][Phe(4-OC2H4NH2,2,3-(CH2)3)][2Nal][Thp(SO2)]EN[3Pal][Sar]-NH2; disulfide 1-6), the IC50 – broadly, the point on the concentration scale where inhibition reaches its midpoint – was determined as 0.058 nM. The same measure for `CC(=O)N[C@@H]1C(=O)N[C@@H](Cc2c[nH]cn2)C(=O)N[C@@H]([C@@H](C)O)C(=O)N[C@@H](Cc2c[nH]c3c(C4CC4)cccc23)C(=O)N[C@@H](CCCCNC(=O)COCCOCCNC(=O)COCCOCCNC(=O)CC[C@H](NC(=O)CCCCCCCCCCCCCCCCC(=O)O)C(=O)O)C(=O)N[C@H](C(=O)N[C@@H](Cc2ccc(OCCN)c3c2CCC3)C(=O)N[C@@H](Cc2ccc3ccccc3c2)C(=O)NC2(C(=O)N[C@@H](CCC(=O)O)C(=O)N[C@@H](CC(N)=O)C(=O)N[C@@H](Cc3cccnc3)C(=O)N(C)CC(N)=O)CCS(=O)(=O)CC2)C(C)(C)SSC1(C)C` [Compound 21] (Ac-[Pen]HT[Trp(7-cPr)]K([AEEA-AEEA-γGlu-C18 diacid])[Pen][Phe(4-OC2H4NH2,2,3-(CH2)3)][2Nal][Thp(SO2)]EN[3Pal][Sar]-NH2; disulfide 1-6): 0.248 nM; for `COCCOCCOCCOCCOCCOCCOCCOCCOCCOCC(=O)N[C@@H]1C(=O)N[C@@H](Cc2c[nH]cn2)C(=O)N[C@@H]([C@@H](C)O)C(=O)N[C@@H](Cc2c[nH]c3c(C4CC4)cccc23)C(=O)N[C@@H](CCC(N)=O)C(=O)N[C@H](C(=O)N[C@@H](Cc2ccc(OCCN)c3c2CCC3)C(=O)N[C@@H](Cc2ccc3ccccc3c2)C(=O)NC2(C(=O)N[C@@H](CCC(=O)O)C(=O)N[C@@H](CC(N)=O)C(=O)N[C@@H](Cc3cccnc3)C(=O)N(C)CC(N)=O)CCS(=O)(=O)CC2)C(C)(C)SSC1(C)C` [Compound 39] (X6-[Pen]HT[Trp(7-cPr)]Q[Pen][Phe(4-OC2H4NH2,2,3-(CH2)3)][2Nal][Thp(SO2)]EN[3Pal][Sar]-NH2; disulfide 1-6): 0.057 nM. Molecule `CC(=O)N[C@H]1CNC(=O)NC[C@@H](C(=O)N[C@@H](Cc2ccc(OCCN)cc2)C(=O)N[C@@H](Cc2ccc3ccccc3c2)C(=O)NC2(C(=O)N[C@@H](CCC(=O)O)C(=O)N[C@@H](CC(N)=O)C(=O)N[C@@H](Cc3cccnc3)C(=O)N(C)CC(N)=O)CCOCC2)NC(=O)[C@H](CCC(N)=O)NC(=O)[C@H](Cc2c[nH]c3c(C)cccc23)NC(=O)[C@H]([C@@H](C)O)NC(=O)[C@H](Cc2c[nH]cn2)NC1=O` [Compound 23] (Ac-[Dap]HT[Trp(7-Me)]Q[Dap][AEF][2Nal][Thp]EN[3Pal][Sar]-NH2; linker 1-6 via CO) came in with an IC50 of 0.161 nM.

`CC(=O)N[C@H]1CSCc2cc3cc(c2)CSC[C@@H](C(=O)N[C@@H](CC(N)=O)C(=O)N[C@@H](Cc2cccnc2)C(=O)N(C)CC(N)=O)NC(=O)C2(CCS(=O)(=O)CC2)NC(=O)[C@H](Cc2ccc4ccccc4c2)NC(=O)[C@H](Cc2ccc(OCCN)c4c2CCC4)NC(=O)[C@H](CSC3)NC(=O)[C@H](CCC(N)=O)NC(=O)[C@H](Cc2c[nH]c3c(C)cccc23)NC(=O)[C@H]([C@@H](C)O)NC(=O)[C@H](Cc2c[nH]cn2)NC1=O` [Compound 19] (Ac-CHT[Trp(7-Me)]QC[Phe(4-OC2H4NH2,2,3-(CH2)3)][2Nal][Thp(SO2)]CN[3Pal][Sar]-NH2; linker 1-6-10 via TBMB) registered a 50% inhibitory concentration (IC50) of 0.248 nM. The figure for `CC(=O)NCCCC[C@@H]1NC(=O)[C@H](Cc2c[nH]c3c(C)cccc23)NC(=O)[C@H]([C@@H](C)O)NC(=O)[C@H](CC(N)=O)NC(=O)C(NC(C)=O)CCCC[C@@H](C(=O)N[C@@H](Cc2ccc(OCCN)cc2)C(=O)N[C@@H](Cc2ccc3ccccc3c2)C(=O)NC2(C(=O)N[C@@H](CCC(=O)O)C(=O)N[C@@H](CC(N)=O)C(=O)N[C@@H](Cc3cccnc3)C(=O)N(C)CC(N)=O)CCOCC2)NC1=O` (single isomer, unassigned) [Compound 44-2] is 0.134 nM; for `C[C@@H](O)[C@@H]1NC(=O)[C@H](Cc2c[nH]cn2)NC(=O)[C@@H](NC(=O)COCCOCCNC(=O)COCCOCCNC(=O)CC[C@H](NC(=O)CCCCCCCCCCCCCCCCC(=O)O)C(=O)O)C(C)(C)SSC(C)(C)[C@@H](C(=O)N[C@@H](Cc2ccc(OCCN)c3c2CCC3)C(=O)N[C@@H](Cc2ccc3ccccc3c2)C(=O)NC2(C(=O)N[C@@H](CCC(=O)O)C(=O)N[C@@H](CC(N)=O)C(=O)N[C@@H](Cc3cccnc3)C(=O)N(C)CC(N)=O)CCS(=O)(=O)CC2)NC(=O)[C@H](CCC(N)=O)NC(=O)[C@H](Cc2c[nH]c3c(C4CC4)cccc23)NC1=O` [Compound 20] ({C18 diacid-γGlu-AEEA-AEEA}-[Pen]HT[Trp(7-cPr)]Q[Pen][Phe(4-OC2H4NH2,2,3-(CH2)3)][2Nal][Thp(SO2)]EN[3Pal][Sar]-NH2; disulfide 1-6) it is 0.116 nM; for `CC(=O)NCCCC[C@@H]1NC(=O)[C@H](Cc2c[nH]c3c(C)cccc23)NC(=O)[C@H]([C@@H](C)O)NC(=O)[C@H](CC(N)=O)NC(=O)C(NC(C)=O)CCCC[C@@H](C(=O)N[C@@H](Cc2ccc(OCCN)cc2)C(=O)N[C@@H](Cc2ccc3ccccc3c2)C(=O)NC2(C(=O)N[C@@H](CCC(=O)O)C(=O)N[C@@H](CC(N)=O)C(=O)N[C@@H](Cc3cccnc3)C(=O)N(C)CC(N)=O)CCOCC2)NC1=O` (single isomer, unassigned) [Compound 44-1] it is 0.145 nM.

In turn, `Cc1cccc2c(C[C@@H]3NC(=O)[C@H]([C@@H](C)O)NC(=O)[C@H](Cc4c[nH]cn4)NC(=O)C4NC(=O)COCCOCCOCCOCCNC(=O)CC[C@@H](C(=O)N[C@@H](CC(N)=O)C(=O)N[C@@H](Cc5cccnc5)C(=O)N(C)CC(N)=O)NC(=O)C5(CCS(=O)(=O)CC5)NC(=O)[C@H](Cc5ccc6ccccc6c5)NC(=O)[C@H](Cc5ccc(OCCN)cc5)NC(=O)[C@@H](NC(=O)[C@H](CCC(N)=O)NC3=O)C(C)(C)SSC43CC3)c[nH]c12` [Compound 53] ([NH(CH2CH2O)4CH2CO][X1]HT[Trp(7-Me)]Q[Pen][AEF][2Nal][Thp(SO2)]EN[3Pal][Sar]-NH2; disulfide 2-7; lactam N-11) yielded an IC50 of 0.065 nM. The figure for `CC(=O)N[C@@H](CCC(=O)NCCOCCOCC(=O)NCCOCCOCC(=O)NCCCC[C@@H]1NC(=O)[C@H](Cc2c[nH]c3c(C4CC4)cccc23)NC(=O)[C@H]([C@@H](C)O)NC(=O)[C@H](Cc2c[nH]cn2)NC(=O)[C@@H](NC(C)=O)C(C)(C)SSC(C)(C)[C@@H](C(=O)N[C@@H](Cc2ccc(OCCN)c3c2CCC3)C(=O)N[C@@H](Cc2ccc3ccccc3c2)C(=O)NC2(C(=O)N[C@@H](CCC(=O)O)C(=O)N[C@@H](CC(N)=O)C(=O)N[C@@H](Cc3cccnc3)C(=O)N(C)CC(N)=O)CCS(=O)(=O)CC2)NC1=O)C(=O)O` [Compound 47] (Ac-[Pen]HT[Trp(7-cPr)]K([AEEA-AEEA-γGlu-Ac])[Pen][Phe(4-OC2H4NH2,2,3-(CH2)3)][2Nal][Thp(SO2)]EN[3Pal][Sar]-NH2; disulfide 1-6) is 0.093 nM.
